Reference: US10787444B2, “Compounds for the modulation of myc activity” (Syros Pharmaceuticals, Inc., priority 2015, dated 2020)
Where two headings read alike, the source gives them in different places.

Key:
[1] = tested on: human small lung cancer cell line H2171; experiment: Cell Viability Assay (ATPlite); type: cell-based; details: read-out: H2171 Activity
Description: Compounds of the invention were assayed for cell viability using the human small lung cancer cell line H2171 as described in the following protocol. Cells were counted and adjusted to 20,000 cells/mL. Using a Biotek EL406, 50 μL of cells in media were distributed into 384 well white plates from Thermo. Immediately after plating, compound in DMSO was distributed to plates. Compounds were added to plates using a 50 nL 384 well pin transfer manifold on a Janus workstation. Stocks were arrayed in 10 point dose response in DMSO stock in 384 well Greiner compound plates. After the addition of compounds, plates were incubated for three days in a 37° C. incubator. Cell viability was read out using ATPlite from Perkin Elmer. Lyophilized powder was resuspended in lysis buffer and diluted 1:2 with deionized water. 25 μL of this solution was added to each well using the Biotek liquid handler. Plates were incubated for 15 minutes at room temperature before signal was read on an Envision Plate Reader. The data from this assay are summarized in Tables 2 and 3 below (H2171 activity).

c-Myc/Max/Ebox DNA = target: T1, c-Myc/Max/Ebox DNA (Homo sapiens, UniProt P01106); experiment: c-Myc/Max/Ebox DNA AlphaScreen Assay; type: binding; details: calculated IC50 class
T1 construct: his6 (cleaved yes)
Description: Compounds of the invention were assayed for c-Myc/Max/EBox activity as described in the following protocol. Human his6-c-Myc and his6-Max were used with biotinylated DNA containing a single Ebox sequence (biotin[…]) purchased from MWG Operon. Free c-Myc was generated from his6-c-Myc through thrombin cleavage of the his6 tag. For 384-well plate assays, 10 μL of a 2× solution of free c-Myc (20 nM final), Ni^2+ coated Acceptor Beads (25 μg/ml final), and biotinylated Ebox oligo (10 nM final) were added to 384-well plates with a Biotek EL406 liquid handler. 50 nL of compounds from stock plates were added by pin transfer using a Janus Workstation (PerkinElmer), allowing the compounds to interact with c-Myc prior to c-Myc binding with Max. In the current assay, DMSO was not allowed to exceed 2% v/v of the assay. 10 μl of 2× master mix containing streptavidin-coated donor beads (25 μg/ml final) and his6-Max (5 nM) were added. AlphaScreen measurements were performed on an Envision plate reader (PerkinElmer) utilizing the manufacturer's protocol.
Both master mixes were made in room temperature assay buffer (50 mM HEPES, 150 mM NaCl, 0.2% w/v BSA, 0.02% w/v Tween20, 40 μg/ml glycogen, 500 μM DTT, pH 8.0, wherein both DTT and glycogen were added fresh). Alpha beads were added to respective master solutions. All subsequent steps were performed in low light conditions. Solution 1:2× solution of components with final concentrations of c-Myc Ni-coated Acceptor Beads (25 μg/ml), and biotinylated Ebox oligo (10 nM). Solution 2:2× solution of streptavidin-coated donor beads (25 μg/ml final) and his6-Max 10 μL. […] 50 nL of compounds from stock plates were added by pin transfer using a Janus Workstation. Solution 2 (10 μl) was added with the liquid handler. Plates were sealed with foil to block light exposure and prevent evaporation. Plates were very briefly centrifuged followed by 2 hour incubation. […] Excitation was at 680 nm for donor bead release of singlet oxygen and emission was read with a bandpass filter from 520-620 nm.

[2] = Table 2, compounds of FIG. 1, H2171 cells, three days, ATPlite, calculated IC50 class
[3] = Homo sapiens, NCI-H2171, 72 h, Table 2, compounds of FIG. 1, H2171 cells, three days, ATPlite, calculated IC50 class

T1 sequence (P01106 whole entry): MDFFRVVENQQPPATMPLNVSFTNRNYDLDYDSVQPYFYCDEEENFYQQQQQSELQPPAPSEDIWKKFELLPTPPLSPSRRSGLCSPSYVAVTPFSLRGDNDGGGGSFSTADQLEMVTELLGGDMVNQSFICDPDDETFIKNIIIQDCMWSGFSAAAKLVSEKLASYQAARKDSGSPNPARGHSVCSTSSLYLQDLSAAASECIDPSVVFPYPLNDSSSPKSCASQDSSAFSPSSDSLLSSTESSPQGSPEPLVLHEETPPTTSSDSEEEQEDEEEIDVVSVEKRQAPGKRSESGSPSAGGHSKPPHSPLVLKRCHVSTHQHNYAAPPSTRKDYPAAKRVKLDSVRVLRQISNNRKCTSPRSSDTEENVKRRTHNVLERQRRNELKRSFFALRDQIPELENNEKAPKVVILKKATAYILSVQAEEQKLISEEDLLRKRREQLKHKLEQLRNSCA

SMILES | IC50 (c-Myc/Max/Ebox DNA; Table 2, compounds of FIG. 1) | IC50 [1, 3] | also measured
COCCNCCC(=O)Nc1sc2c(c1-c1nc3cc(F)ccc3s1)CC(C)NC2C (single isomer, unassigned) [Compound 546, N-(3-(5-Fluorobenzo[d]thiazol-2-yl)-5,7-dimethyl-4,5,6,7-tetrahydrothieno[2,3-c]pyridin-2-yl)-3-((2-methoxyethyl)amino)propanamide] | > 10000 nM |  | IC50 [1, 2]: < 300 nM
COCCNCCC(=O)Nc1sc2c(c1-c1nc3cc(-c4ccncc4)ccc3s1)CC(C)NC2 (single isomer, unassigned) [Compound 549, 3-((2-Methoxyethyl)amino)-N-(5-methyl-3-(5-(pyridin-4-yl)benzo[d]thiazol-2-yl)-4,5,6,7-tetrahydrothieno[2,3-c]pyridin-2-yl)propanamide] | < 300 nM | < 300 nM | 
COCCNCCC(=O)Nc1sc2c(c1-c1nc3cc(-c4cncc(N)c4)ccc3s1)CCNC2 [compound 443] | < 300 nM | < 300 nM | 
COCCNCCC(=O)Nc1sc2c(c1-c1nc3cc(-c4cncc(F)c4)ccc3s1)CCNC2 [compound 337] | < 300 nM | < 300 nM | 
COCCNCCC(=O)Nc1sc2c(c1-c1nc3cc(-c4ccncc4)ccc3s1)CCNC2C (single isomer, unassigned) [Compound 569, 3-((2-Methoxyethyl)amino)-N-(7-methyl-3-(5-(pyridin-4-yl)benzo[d]thiazol-2-yl)-4,5,6,7-tetrahydrothieno[2,3-c]pyridin-2-yl)propanamide] | 1000 to 10000 nM |  | IC50 [1, 2]: 1000 to 10000 nM
COCCNCCC(=O)Nc1sc2c(c1-c1nc3cc(-c4cnn(C)c4)ccc3s1)CC(C)NC2C (single isomer, unassigned) [Compound 564, N-(5,7-Dimethyl-3-(5-(1-methyl-1H-pyrazol-4-yl)benzo[d]thiazol-2-yl)-4,5,6,7-tetrahydrothieno[2,3-c]pyridin-2-yl)-3-((2-methoxyethyl)amino)propanamide] | < 300 nM | < 300 nM | 
CC(=O)Nc1sc2c(c1-c1nc3ccccc3s1)C(C)CNC2 (stereo not drawn) [Compound 205, N-(3-(benzo[d]thiazol-2-yl)-4-methyl-4,5,6,7-tetrahydrothieno[2,3-c]pyridin-2-yl)acetamide] |  |  | IC50 ([1]; Homo sapiens, NCI-H2171, 72 h, Table 3, compounds of FIG. 2, H2171 cells, three days, ATPlite, calculated IC50 class): > 10000 nM; IC50 (c-Myc/Max/Ebox DNA; Table 3, compounds of FIG. 2): > 10000 nM
COCCNCCC(=O)Nc1sc2c(c1-c1nc3cc(C4=CCNCC4)ccc3s1)CCNC2 [compound 497] | < 300 nM | < 300 nM | 
CC(=O)Nc1sc2c(c1-c1nc3ccccc3s1)C[C@@H](C)N[C@H]2C [Compound 218, N-((5R,7S)-3-(benzo[d]thiazol-2-yl)-5,7-dimethyl-4,5,6,7-tetrahydrothieno[2,3-c]pyridin-2-yl)acetamide] |  |  | IC50 ([1]; Table 3, compounds of FIG. 2, H2171 cells, three days, ATPlite, calculated IC50 class): < 300 nM; IC50 (c-Myc/Max/Ebox DNA; Table 3, compounds of FIG. 2): 1000 to 10000 nM
COCCNCCC(=O)Nc1sc2c(c1-c1nc3cc(-c4cnc(OC)nc4)ccc3s1)CCNC2 [compound 404] | < 300 nM | < 300 nM | 
CCNCCC(=O)Nc1sc2c(c1-c1nc3ccccc3s1)CCN(C(C)C)C2 [Compound 540, N-(3-(Benzo[d]thiazol-2-yl)-6-isopropyl-4,5,6,7-tetrahydrothieno[2,3-c]pyridin-2-yl)-3-(ethylamino)propanamide] | 300 to 1000 nM |  | IC50 ([1]; Homo sapiens, NCI-H2171, 72 h): < 300 nM
COCCNCCC(=O)Nc1sc2c(c1-c1nc3cc(F)ccc3s1)CC(C)NC2C (single isomer, unassigned) [Compound 545, N-(3-(5-Fluorobenzo[d]thiazol-2-yl)-5,7-dimethyl-4,5,6,7-tetrahydrothieno[2,3-c]pyridin-2-yl)-3-((2-methoxyethyl)amino)propanamide] | < 300 nM |  | IC50 [1, 2]: < 300 nM
CCN1CCc2c(sc(NC(C)=O)c2-c2nc3ccccc3s2)C1 [Compound 201, N-(3-(benzo[d]thiazol-2-yl)-6-ethyl-4,5,6,7-tetrahydrothieno[2,3-c]pyridin-2-yl)acetamide] |  |  | IC50 ([1]; Homo sapiens, NCI-H2171, 72 h): 1000 to 10000 nM; IC50 (c-Myc/Max/Ebox DNA; Table 3, compounds of FIG. 2): 1000 to 10000 nM
COCCNCCC(=O)Nc1sc2c(c1-c1nc3cc(-c4ccc(C(=O)OC)nc4)ccc3s1)CCNC2 [compound 409] | < 300 nM | < 300 nM | 

Second part, led by results:

IC50 (c-Myc/Max/Ebox DNA; Table 2, compounds of FIG. 1) | IC50 [1, 3] | SMILES | also measured
> 10000 nM |  | CCC(C)N(C)CCC(=O)Nc1sc2c(c1-c1nc3ccccc3s1)CCN(C(C)C)C2 (stereo not drawn) [Compound 577, N-(3-(benzo[d]thiazol-2-yl)-6-isopropyl-4,5,6,7 tetrahydrothieno[2,3-c]pyridin-2-yl)-3-(sec-butyl(methyl)amino)propanamide] | IC50 [1, 2]: > 10000 nM
< 300 nM | < 300 nM | CC(C)NCCC(=O)Nc1sc2c(c1-c1nc3c(-c4cccnc4)cccc3s1)CCNC2 [compound 534] | 
< 300 nM | < 300 nM | CCc1cccc2nc(-c3c(NC(=O)CCNCCOC)sc4c3CCNC4)sc12 [compound 599] | 
< 300 nM | < 300 nM | CC(C)NCCC(=O)Nc1sc2c(c1-c1nc3cc(-n4cnc(Cl)c4)ccc3s1)CCNC2 [compound 173] | 
300 to 1000 nM | < 300 nM | CCC1Cc2c(sc(NC(=O)CCNCCOC)c2-c2nc3ccccc3s2)C(CC)N1 (single isomer, unassigned) [Compound 536, N-(3-(Benzo[d]thiazol-2-yl)-5,7-diethyl-4,5,6,7-tetrahydrothieno[2,3-c]pyridin-2-yl)-3-((2-methoxyethyl)amino)propanamide] | 
> 10000 nM | 300 to 1000 nM | CCC(C)N(CCC(=O)Nc1sc2c(c1-c1nc3ccccc3s1)CCN(CCNC(=O)C(F)(F)F)C2)C(C)=O (stereo not drawn) [Compound 319, N-(3-(Benzo[d]thiazol-2-yl)-6-(2-(2,2,2-trifluoroacetamido)ethyl)-4,5,6,7-tetrahydrothieno[2,3-c]pyridin-2-yl)-3-(N-(sec-butyl)acetamido)propanamide] | 
> 10000 nM |  | CCC1Cc2c(sc(NC(=O)CCNCCOC)c2-c2nc3ccccc3s2)C(CC)N1 (single isomer, unassigned) [Compound 537, N-(3-(Benzo[d]thiazol-2-yl)-5,7-diethyl-4,5,6,7-tetrahydrothieno[2,3-c]pyridin-2-yl)-3-((2-methoxyethyl)amino)propanamide] | IC50 [1, 2]: < 300 nM
< 300 nM | < 300 nM | COCCNCCC(=O)Nc1sc2c(c1-c1nc3ccc(-c4cn[nH]c4)cc3s1)CCNC2 [compound 339] | 
< 300 nM | 300 to 1000 nM | CC(C)(C)NCCC(=O)Nc1sc2c(c1-c1nc3ccccc3s1)CCNC2 [Compound 131, N-(3-(benzo[d]thiazol-2-yl)-4,5,6,7-tetrahydrothieno[2,3-c]pyridin-2-yl)-3-(tert-butylamino)propanamide] | 
< 300 nM | < 300 nM | COCCNCCC(=O)Nc1sc2c(c1-c1nc3cc(F)ccc3s1)CCNC2 [Compound 189, N-(3-(5-fluorobenzo[d]thiazol-2-yl)-4,5,6,7-tetrahydrothieno[2,3-c]pyridin-2-yl)-3-((2-methoxyethyl)amino)propanamide] | 
< 300 nM | < 300 nM | COCCNCCC(=O)Nc1sc2c(c1-c1nc3cc(C)ccc3s1)CCNC2 [Compound 314, 3-((2-Methoxyethyl)amino)-N-(3-(5-methylbenzo[d]thiazol-2-yl)-4,5,6,7-tetrahydrothieno[2,3-c]pyridin-2-yl)propanamide] | 
< 300 nM | < 300 nM | CCC(C)NCCC(=O)Nc1sc2c(c1-c1nc3cc(-c4cccnc4)ccc3s1)CCNC2 (stereo not drawn) [compound 150] | 
< 300 nM | < 300 nM | CC(C)NCCC(=O)Nc1sc2c(c1-c1nc3c(-c4cnn(C)c4)cccc3s1)CCNC2 [compound 515] | 
